This is an account of results in patent publication US12077503B2, “Substituted cyclic amides and their use as herbicides” (FMC CORPORATION, priority 2015, dated 2024).

Assay type in all cases: in vivo
The subject of experiment [1] is Kochia (Kochia scoparia). The experiment is described as follows: Test A preemergence. The conditions noted are these: Bassia scoparia, pre-emergence, 240 h; for pest or weed control at 500 g/ha: 500 g ai/ha, Preemergence, visual injury vs untreated controls after approximately 10 d, read-out: Kochia plant response rating (0 to 100 scale where 0 is no effect and 100 is complete control). The method, boiled down:
(§1)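 Ratings of 0 (no effect) to 100 (complete control) come from visual comparison with untreated controls roughly 10 d after treatment. Test chemicals, formulated in a non-phytotoxic solvent mixture with surfactant, were applied either as a preemergence directed soil spray on seeded soil or postemergence to one- to two-leaf plants 2 to 10 cm tall.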

For experiment [2], the system named is giant foxtail (Setaria faberii). The experiment in a line: Test A preemergence. The conditions noted are these: Setaria faberi, pre-emergence, 240 h; for pest or weed control at 125 g/ha: 125 g ai/ha, preemergence, visual rating after approx. 10 d, 0 to 100 scale where 0 is no effect and 100 is complete control, read-out: Plant response rating, Foxtail, Giant; for pest or weed control at 500 g/ha: 500 g ai/ha, Preemergence, visual injury vs untreated controls after approximately 10 d, read-out: Foxtail, Giant plant response rating (0 to 100 scale where 0 is no effect and 100 is complete control). Summed up:
as §1

Experiment [3] concerns pigweed (Amaranthus retroflexus). The experiment in a line: Test A preemergence. The conditions noted are these: Amaranthus retroflexus, pre-emergence, 240 h; for pest or weed control at 125 g/ha: 125 g ai/ha, preemergence, visual rating after approx. 10 d, 0 to 100 scale where 0 is no effect and 100 is complete control, read-out: Plant response rating, Pigweed; for pest or weed control at 500 g/ha: 500 g ai/ha, Preemergence, visual injury vs untreated controls after approximately 10 d, read-out: Pigweed plant response rating (0 to 100 scale where 0 is no effect and 100 is complete control).

Experiment [4] relates to ragweed (common ragweed, Ambrosia elatior). The experiment is described as follows: Test A preemergence. Conditions: Ambrosia artemisiifolia, pre-emergence, 240 h; for pest or weed control at 125 g/ha: 125 g ai/ha, preemergence, visual rating after approx. 10 d, 0 to 100 scale where 0 is no effect and 100 is complete control, read-out: Plant response rating, Ragweed; for pest or weed control at 500 g/ha: 500 g ai/ha, Preemergence, visual injury vs untreated controls after approximately 10 d, read-out: Ragweed plant response rating (0 to 100 scale where 0 is no effect and 100 is complete control). The method, boiled down: as §1

Experiment [5] has as its system ryegrass, Italian (Italian ryegrass, Lolium multiflorum). The experiment is described as follows: Test A preemergence. The conditions noted are these: Lolium multiflorum, pre-emergence, 240 h; for pest or weed control at 125 g/ha: 125 g ai/ha, preemergence, visual rating after approx. 10 d, 0 to 100 scale where 0 is no effect and 100 is complete control, read-out: Plant response rating, Ryegrass, Italian; for pest or weed control at 500 g/ha: 500 g ai/ha, Preemergence, visual injury vs untreated controls after approximately 10 d, read-out: Ryegrass, Italian plant response rating (0 to 100 scale where 0 is no effect and 100 is complete control). The method, boiled down:
as §1

In experiment [6] the test system is Galium (catchweed bedstraw, Galium aparine). The experiment is described as follows: Test A postemergence. Conditions: Galium, post-emergence, 240 h, 125 g ai/ha, postemergence; visual injury after approximately 10 d; 0 to 100 scale (0 no effect, 100 complete control); read-out: Plant response rating, Galium. Summed up: as §1
Experiment [7] has as its system Kochia (Kochia scoparia). The experiment is described as follows: Test A postemergence. Conditions: Bassia scoparia, post-emergence, 240 h, 125 g ai/ha, postemergence; visual injury after approximately 10 d; 0 to 100 scale (0 no effect, 100 complete control); read-out: Plant response rating, Kochia. Summed up:
as §1

Experiment [8] has as its system barnyardgrass (Echinochloa crus-galli). The experiment in a line: Test A postemergence. Conditions: Echinochloa crus-galli, post-emergence, 240 h, 125 g ai/ha, postemergence; visual injury after approximately 10 d; 0 to 100 scale (0 no effect, 100 complete control); read-out: Plant response rating, Barnyardgrass. The method, boiled down: as §1
For experiment [9], the system named is blackgrass (Alopecurus myosuroides). The experiment in a line: Test A postemergence. Conditions: Alopecurus myosuroides, post-emergence, 240 h, 125 g ai/ha, postemergence; visual injury after approximately 10 d; 0 to 100 scale (0 no effect, 100 complete control); read-out: Plant response rating, Blackgrass. Summed up: as §1
Another experiment has as its system corn (Zea mays). The experiment in a line: Test A postemergence. The conditions noted are these: Zea mays, post-emergence, 240 h, 125 g ai/ha, postemergence; visual injury after approximately 10 d; 0 to 100 scale (0 no effect, 100 complete control). The method, boiled down: as §1
The subject of experiment [10] is giant foxtail (Setaria faberii). The experiment in a line: Test A postemergence. Conditions: Setaria faberi, post-emergence, 240 h, 125 g ai/ha, postemergence; visual injury after approximately 10 d; 0 to 100 scale (0 no effect, 100 complete control); read-out: Plant response rating, Foxtail, Giant. Summed up: as §1
For experiment [11], the system named is pigweed (Amaranthus retroflexus). The experiment is described as follows: Test A postemergence. The conditions noted are these: Amaranthus retroflexus, post-emergence, 240 h, 125 g ai/ha, postemergence; visual injury after approximately 10 d; 0 to 100 scale (0 no effect, 100 complete control); read-out: Plant response rating, Pigweed. The method, boiled down:
as §1

The subject of experiment [12] is ragweed (common ragweed, Ambrosia elatior). The experiment is described as follows: Test A postemergence. The conditions noted are these: Ambrosia artemisiifolia, post-emergence, 240 h, 125 g ai/ha, postemergence; visual injury after approximately 10 d; 0 to 100 scale (0 no effect, 100 complete control); read-out: Plant response rating, Ragweed. Summed up:
as §1

The subject of experiment [13] is ryegrass, Italian (Italian ryegrass, Lolium multiflorum). The experiment is described as follows: Test A postemergence. The conditions noted are these: Lolium multiflorum, post-emergence, 240 h, 125 g ai/ha, postemergence; visual injury after approximately 10 d; 0 to 100 scale (0 no effect, 100 complete control); read-out: Plant response rating, Ryegrass, Italian. The method, boiled down:
as §1

For `Cc1cc([C@H]2CNC(=O)[C@@H]2C(=O)Nc2cccc(F)c2F)ccc1Cl` [Compound 790], the pest or weed control at 125 g/ha in the experiment on Kochia (Kochia scoparia) [1] (125 g ai/ha, preemergence, visual rating after approx. 10 d, 0 to 100 scale where 0 is no effect and 100 is complete control, read-out: Plant response rating, Kochia) is 70%; in [2] it was 70%; in [3] it was 0%; in [4], 20%; in experiment [5] it was 30%; in [6], 50%. The pest or weed control at 125 g/ha in the experiment on Kochia (Kochia scoparia) [7] came to 40%; in experiment [8] it was 80%; in experiment [9] it was 40%; in [10], 50%; in experiment [11] it was 20%; in experiment [12] it was 30%. In addition, the pest or weed control at 125 g/ha in [13] was determined as 0%. The pest or weed control at 500 g/ha in the experiment on Kochia (Kochia scoparia) [1] was found to be 80%; in experiment [2], 90%; in experiment [3], 40%; in experiment [4], 60%; in experiment [5] it was 70%. Also, the Corn plant response rating (crop injury, 0 = no effect, 100 = complete kill) at 125 g/ha in the experiment with corn (Zea mays) came out at 30%.

In the case of `Cc1cc([C@H]2CNC(=O)[C@@H]2C(=O)Nc2ccccc2F)ccc1Cl` [Compound 789], the pest or weed control at 500 g/ha in the experiment on Kochia (Kochia scoparia) [1] came to 30%; in [2] it was 90%; in experiment [3] it was 20%; in experiment [4], 0%; in experiment [5], 0%. The pest or weed control at 125 g/ha came out at 60% in experiment [2]; 0% in [3]; 0% in experiment [4]; 0% in [5]; 40% in experiment [6]; 0% in the experiment on Kochia (Kochia scoparia) [7]. In addition, the pest or weed control at 125 g/ha in experiment [8] stood at 80%; in experiment [9], 40%; in experiment [10] it was 30%; in experiment [11], 0%; in [12], 0%; in experiment [13] it was 0%. This compound showed a Corn plant response rating (crop injury, 0 = no effect, 100 = complete kill) at 125 g/ha in the experiment with corn (Zea mays) of 20%.
